The series can be described thus: RP, Agilent ZORBAX Eclipse XDB-C8, 150 × 4.6 mm, 3.5 µm, 25 °C, 0.6 mL/min, estimated dead time 2.6 min; A: water + 0.1% formic acid; B: acetonitrile + 0.1% formic acid; gradient (min/%B) 0/10 5/10 30/100. Particulars: stereoisomer not certain.

The structures appear in SMILES notation.

For `Cc1ccnc(NS(=O)(=O)c2ccc(N)cc2)n1`, the LC retention time is 11.5 min.
With `CCn1cc(C(=O)O)c(=O)c2cc3c(cc21)OCO3`, the LC retention time was 15.4 min.
Take `CON=C(C(=O)NC1C(=O)N2C(C(=O)O)=C(COC(C)=O)CSC12)c1csc(N)n1` (stereo unspecified): the LC retention time is 12.9 min.
Take `NC(=O)N1c2ccccc2CC(=O)c2ccccc21`: the LC retention time was 15.8 min.
For the molecule `O=C(c1ccccc1)c1ccc2n1CCC2C(=O)O` (stereo unspecified), the LC retention time was 19.7 min.
In the case of `CC1(C)SC2C(NC(=O)COc3ccccc3)C(=O)N2C1C(=O)O` (stereo unspecified), the LC retention time is 17.9 min.
As for `NC(=O)N1c2ccccc2C=Cc2ccccc21`, the LC retention time was 17.2 min.
For the molecule `CCC1OC(=O)C(C)C(OC2CC(C)(OC)C(O)C(C)O2)C(C)C(OC2OC(C)CC(N(C)C)C2O)C(C)(O)CC(C)C(=NOCOCCOC)C(C)C(O)C1(C)O` (stereo unspecified), the LC retention time was 16.2 min.
Take `CC(C(=O)O)c1cccc(C(=O)c2ccccc2)c1` (stereo unspecified): the LC retention time is 19 min.
On to `CCC1OC(=O)C(C)C(OC2CC(C)(OC)C(O)C(C)O2)C(C)C(OC2OC(C)CC(N(C)C)C2O)C(C)(OC)CC(C)C(=O)C(C)C(O)C1(C)O` (stereo unspecified), for which the LC retention time was 16 min.
With `CC(C)NCC(O)COc1ccc(CC(=O)O)cc1` (stereo unspecified), the LC retention time is 9.4 min.
The figure for `CC12CCC(O)CC1CCC1C2CC(O)C2(C)C(C3=CC(=O)OC3)CCC12O` (stereo unspecified) is 13.4 min; for `CNC(=C[N+](=O)[O-])NCCSCc1ccc(CN(C)C)o1` it is 4.6 min; for `COc1ccc(C(CN(C)C)C2(O)CCCCC2)cc1` (stereo unspecified) it is 13.5 min.
`CC(=O)CC(c1ccccc1)c1c(O)c2ccccc2oc1=O` (stereo unspecified): the LC retention time was 21.4 min.
On to `NC(=O)N1c2ccccc2CC(O)c2ccccc21` (stereo unspecified), for which the LC retention time is 13.9 min.
As for `CC(C)Cc1ccc(C(C)C(=O)O)cc1` (stereo unspecified), the LC retention time is 23.6 min.
Turning to `CCCC1CC(C(=O)NC(C(C)O)C2OC(SC)C(O)C(O)C2O)N(C)C1` (stereo unspecified), the LC retention time was 8.7 min.
Take `CC(C)(C)NCC(O)c1ccc(O)c(CO)c1` (stereo unspecified): the LC retention time is 4 min.
Take `Nc1ccc(S(=O)(=O)Nc2nccs2)cc1`: the LC retention time is 10.6 min.
The figure for `CCC(=O)C(CC(C)N(C)C)(c1ccccc1)c1ccccc1` (stereo unspecified) is 16.6 min.
For the molecule `Cn1c(=O)c2c(ncn2C)n(C)c1=O`, the LC retention time is 9.8 min.
For `CCCC(C)(COC(N)=O)COC(N)=O`, the LC retention time is 14.7 min.
Regarding `Cc1nnc(NS(=O)(=O)c2ccc(N)cc2)s1`, the LC retention time was 12.7 min.
As for `COc1ccc(C2Sc3ccccc3N(CCN(C)C)C(=O)C2OC(C)=O)cc1` (stereo unspecified), the LC retention time was 15.2 min.
Take `COc1cc(NS(=O)(=O)c2ccc(N)cc2)nc(OC)n1`: the LC retention time is 16.5 min.
As for `COc1ccc2c3c1OC1C(=O)CCC4C(C2)N(C)CCC314` (stereo unspecified), the figure is 10.1 min.
As for `CC1(C)SC2C(NC(=O)Cc3ccccc3)C(=O)N2C1C(=O)O` (stereo unspecified), the LC retention time is 16.9 min.
With `CN(C)CCOC(c1ccccc1)c1ccccc1`, the LC retention time was 15.1 min.
Take `O=C1NC(=O)C(c2ccccc2)(c2ccccc2)N1`: the LC retention time was 17.1 min.
In the case of `Cn1c(=O)[nH]c2ncn(C)c2c1=O`, the LC retention time is 6.3 min.
In the case of `c1ccc2[nH]c(-c3cscn3)nc2c1`, the LC retention time is 8.8 min.
As for `Nc1ccc(S(N)(=O)=O)cc1`, the figure is 4.6 min; as for `Cc1onc(-c2ccccc2)c1C(=O)NC1C(=O)N2C1SC(C)(C)C2C(=O)O` (stereo unspecified), 19.2 min.
The figure for `CC1=CC(O)CC(=O)Cc2nc(co2)C(=O)N2CCC=C2C(=O)OC(C(C)C)C(C)C=CC(=O)NCC=C1.CCC1NC(=O)C(NC(=O)c2ncccc2O)C(C)OC(=O)C(c2ccccc2)NC(=O)C2CC(=O)CCN2C(=O)C(Cc2ccccc2)N(C)C(=O)C2CCCN2C1=O` (stereo unspecified) is 18.4 min.
As to `CCC1(c2ccccc2)C(=O)NCNC1=O`, the LC retention time is 12.7 min.
As to `NC(=O)N1c2ccccc2C(O)C(O)c2ccccc21` (stereo unspecified), the LC retention time was 12.9 min.
For the molecule `CC(C)NCC(O)COc1ccc(CC(N)=O)cc1` (stereo unspecified), the LC retention time is 4.2 min.
As for `CC1OC(OC2C(O)CC(OC3C(O)CC(OC4CCC5(C)C(CCC6C5CC(O)C5(C)C(C7=CC(=O)OC7)CCC65O)C4)OC3C)OC2C)CC(O)C1O` (stereo unspecified), the LC retention time was 15.2 min.
Take `CC1(C)SC2C(NC(=O)C(N)c3ccccc3)C(=O)N2C1C(=O)O` (stereo unspecified): the LC retention time is 10.4 min.
As for `Cc1cccc(Nc2ccccc2C(=O)O)c1C`, the LC retention time is 24.6 min.
As for `Cc1ccc(C)c(OCCCC(C)(C)C(=O)O)c1`, the figure is 25 min; as for `Nc1ccc(S(=O)(=O)Nc2ncccn2)cc1`, 9.9 min; as for `COc1ccc2c3c1OC1C(O)C=CC4C(C2)N(C)CCC341` (stereo unspecified), 7 min.
For the molecule `COc1ccc2c3c1OC1C(=O)CCC4(O)C(C2)N(C)CCC314` (stereo unspecified), the LC retention time is 9.4 min.
The figure for `CCC1OC(=O)C(C)C(OC2CC(C)(OC)C(O)C(C)O2)C(C)C(OC2OC(C)CC(N(C)C)C2O)C(C)(O)CC(C)C(=O)C(C)C(O)C1(C)O` (stereo unspecified) is 14.6 min; for `COCCc1ccc(OCC(O)CNC(C)C)cc1` (stereo unspecified) it is 12.1 min.
The figure for `COC(=O)c1c(C)nc(C)c(C(=O)OC)c1-c1ccccc1[N+](=O)[O-]` is 20.5 min; for `COc1ccc2cc(C(C)C(=O)O)ccc2c1` (stereo unspecified) it is 20.9 min; for `CCC1OC(=O)CC(O)C(C)C(OC2OC(C)C(OC3CC(C)(O)C(O)C(C)O3)C(N(C)C)C2O)C(CC=O)CC(C)C(=O)C=CC(C)=CC1COC1OC(C)C(O)C(OC)C1OC` (stereo unspecified) it is 15 min.
`COc1cccc(C2(O)CCCCC2CN(C)C)c1` (stereo unspecified): the LC retention time was 11.1 min.
As for `Cc1cc(C)nc(NS(=O)(=O)c2ccc(N)cc2)n1`, the LC retention time is 12.4 min.
As to `COc1cc(Cc2cnc(N)nc2N)cc(OC)c1OC`, the LC retention time is 10.4 min.
In the case of `CN1CCC23CCCCC2C1Cc1ccc(O)cc13` (stereo unspecified), the LC retention time is 12.1 min.
The figure for `NC(=O)N1c2ccccc2CCc2ccccc21` is 17.1 min; for `CCC1OC(=O)C(C)C(OC2CC(C)(OC)C(O)C(C)O2)C(C)C(OC2OC(C)CC(N(C)C)C2O)C(C)(O)CC(C)CN(C)C(C)C(O)C1(C)O` (stereo unspecified) it is 12.2 min.
Take `CCC(C)(C)C(=O)OC1CC(C)C=C2C=CC(C)C(CCC3CC(O)CC(=O)O3)C21` (stereo unspecified): the LC retention time was 26.9 min.
`Cc1cc(NS(=O)(=O)c2ccc(N)cc2)no1`: the LC retention time was 15.3 min.
Turning to `CN=C(NC#N)NCCSCc1nc[nH]c1C`, the LC retention time was 4.3 min.
Regarding `CC(C)NCC(O)COc1cccc2ccccc12` (stereo unspecified), the LC retention time is 14.4 min.
With `CN(C)CC(c1ccc(O)cc1)C1(O)CCCCC1` (stereo unspecified), the LC retention time is 11.3 min.
The figure for `CN1C(=O)CCC1c1cccnc1` (stereo unspecified) is 3.2 min; for `NCC1(CC(=O)O)CCCCC1` it is 6.5 min; for `COc1ccccc1OCC(O)CO` (stereo unspecified) it is 12.7 min.
On to `COc1ccc2c(c1)C13CCCCC1C(C2)N(C)CC3` (stereo unspecified), for which the LC retention time is 14.6 min.
`CC(=O)Nc1ccc(O)cc1`: the LC retention time is 6.5 min.

The record behind these values is the RepoRT retention time repository (doi:10.1016/j.chroma.2012.03.059).
